Laboratory results reported in US20150072943A1, “MIXTURE OF POLAR G[…] USE IN THE TREATMENT OF PAIN AND COPD” (SANOFI, priority 2012, published 2015).

Legend:
[1] = system: release of TNFalpha induced by E Coli LPS in mouse bronchus parenchyma tissue culture; experiment: LPS-induced TNFalpha release in mouse bronchus parenchyma tissue culture; type: cell-based
Method: The animals (BALB/c male mice, 20-22 g body weight) were sacrificed by cervical dislocation. The thoracic cage was opened cutting the ribs. Clamping the heart with surgical tweezers, lungs and heart were dissected from the thoracic cavity using surgical scissors and putted in cold Krebs solution ([…]: NaCl 118.4, KCl 4.7, CaCl2 2.5, KH2PO4 1.2, NaHCO3 25, glucose 11.7). Large airways and visible blood vessels were dissected. The lungs were divided in fragments of 30 mg (˜5 pieces/mouse) and finely chopped (six pieces of ˜2 mm3 each fragment) using a scalpel. Six explants (total weight 30 mg) were incubated per well (2.0 cm2) of a 24 well plate with 1 ml of RPMI-1640 medium (RPMI-1640+antibiotic antimycotic solution 100x, Sigma-Aldrich) at 37° C. in 5% carbon dioxide/air for 16 hours. Then the medium was replaced with fresh medium and the tissue was treated for 1 hour with compound. After one hour, the tissue was stimulated with 100 ng/ml LPS E. Coli 055:B5 (Sigma-Aldrich). 4 hour after LPS stimulation, supernatant was harvested and stored at −80° C. until ELISA analysis. Three of six tissue explants were fixed in 10% formalin buffer for histological/immunohistochemical analysis. The other three tissue explants were put in RNA-later buffer overnight and then stored at −80° C. […]

[2] = system: release of TNFalpha induced by E. Coli-LPS in human bronchus parenchyma tissue culture; experiment: LPS-induced TNFalpha release in human bronchus parenchyma tissue culture; type: cell-based
Text: Human parenchymal lung tissue was obtained from patients undergoing resection for carcinoma at San Gerardo Hospital, Monza, Italy. Patients had not received radiotherapy or chronic treatment with steroids, opioids or chemotherapy. All specimens of parenchymal tissue were obtained from sites distant from the tumour. The study was approved by the institutional ethics committee of San Gerardo hospital Monza Italy and all volunteers gave informed consent. Resected lung tissue was dissected free of tumour, large airways, pleura and visible blood vessels and finely chopped using dissecting scissors, into 2 mm fragments during several washes with Kreb's buffer (([…]: NaCl 118.4, KCl 4.7, CaCl2 2.5, KH2PO4 1.2, NaHCO3 25, glucose 11.7). Six explants (total weight approx. 30 mg) were incubated in culture bioreactor (Synthecon/NASA USA) with RPMI-1640 medium containing 1% penicillin, 1% streptomycin, and 1% gentamycin at 37° C. in 5% carbon dioxide/air for 16 hours. Tissue was then either stimulated with 100 ng/ml LPS (Sigma-Aldrich) or maintained in cell culture media alone for 4 hours. For neutralization of TNF, tissue was incubated with 0.01, 0.1, or 1 μM of VB3323 for 1 hr prior to stimulation with 100 ng/ml LPS. […] The levels of TNFalpha in the supernatant were measured by enzyme-linked immunosorbent assay (ELISA) and the concentration corrected for tissue weight. […]

C[C@@H]1C[C@H]2[C@@H]3CCC4=CC(=O)C=C[C@]4(C)[C@@]3(F)[C@@H](O)C[C@]2(C)[C@@]1(O)C(=O)CO [Dexamethasone]
inhibition at 1 µM [1]: 67% | inhibition at 1 µM [2]: 69%
